Data on three substances can be found in patent US20140364483A1, “ALTERNATIVE SPLICING VARIANTS OF GENES ASSOCIATED WITH PROSTATE CANCER RISK AND SURVIVAL” (The George Washington University, priority 2011, published 2014).

d = 2'-deoxy (DNA); r = 2'-OH (RNA); {P} = phosphate

Common to all, as to assay type: cell-based, human
Data set [1] deals with MDA PCa 2b cells. The data set can be described thus: Matrigel invasion after siRNA knockdown of splice variants. The conditions noted are these: AA PCa cell line MDA PCa 2b. An excerpt:
(§1) The predominant expression of the L variant and very little to no expression of the S variant in the CA PCa cell line is consistent with the CA patient samples (see PIK3CD in FIG. 4). SiRNA-mediated knockdown of the L variant in VCaP cells leads to a decrease in Matrigel invasion and a decrease in proliferation (FIG. 7A). By comparison, the AA PCa cell line MDA PCa 2b expresses both an L and S variant, and knockdown of the L variant leads to an increase in Matrigel invasion and an increase in proliferation (FIG. 7A). Since VCaP cells express very little to no S variant, targeted siRNA-mediated knockdown of this variant leads to no change in Matrigel invasion and proliferation (FIG. 7B). In contrast, targeted knockdown of the S variant in MDA PCa 2b cells leads to decreased Matrigel invasion and decreased proliferation (since the S variant is found almost exclusively in AA patient samples, it is referred to as the ‘AA variant’) (FIG. 7B). […] Analogous findings were obtained in MDA PCa 2b cells when the ratio of the ‘AA variant’ (S or b isoform) was increased over the ‘CA variant’ (L or an isoform) for the FGFR3, TSC2.
(§2) For RASGRP2, the long variant (with exon 10) is common to both AA and CA patients, whereas the short variant (without exon 10) is unique to AA. Targeted knockdown of the long splicing variant in VCaP cells reduced Matrigel invasion and an increase in proliferation (FIG. 8).

Data set [2] has as its system VCaP cells. The data set is described as above. As to conditions: CA PCa cell line VCaP.
From the text: as §1, §2

The test system of data set [3] is MDA PCa 2b cells. The data set can be described thus: Cell proliferation after siRNA knockdown of splice variants. The conditions noted are these: AA PCa cell line MDA PCa 2b.
From the text: as §1, §2

The subject of data set [4] is VCaP cells. The data set is described as above. The conditions noted are these: CA PCa cell line VCaP.
From the text: as §1, §2

The next data set has as its system AKT pathway. Briefly: AKT pathway phosphorylation after knockdown of PIK3CD long variant. An excerpt:
Activation of AKT is known to promote cell growth and mRNA translation (FIG. 9a). When the expression of PIK3CD “long” variant is knocked down by siRNA targeting of Exon 23 in the VCaP cell line, which only expresses the long variant, there is a decrease of phosphorylation of AKT, compared to nonsense siRNA control, and also decrease of phosphorylation of downstream signaling proteins mTOR and S6 (FIG. 9b). […] In other words, increasing S/L variants proportion in MDA PCa 2b cells activates the AKT pathways.

Where [5] appears, read: VCaP cell line, compared to nonsense siRNA control.

“siRNA targeting RASGRP2 exon 10: siRNA duplex SEQ ID Nos. 40 and 41, sense 5′ GUGGAGCACAUCGAGAAGAdTdT 3′; long variant contains exon 10 (sense GUGGAGCACAUCGAGAAGATT; antisense UCUUCUCGAUGUGCUCCAC; sense: sugars from the 5' end r19 d2, backbone not given here; antisense: chemistry not given here)”: the figures for the Matrigel invasion entry in the data set with MDA PCa 2b cells [1] and with VCaP cells [2] were “opposite effect” and “reduced”, respectively. For the same substance, the values for the proliferation entry in the data set with MDA PCa 2b cells [3] and with VCaP cells [4] were “opposite effect” and “increase”, respectively.

In the case of “siPIK3CD-ex23: siRNA duplex SEQ ID Nos. 4 and 5, sense 5′ CCAACAUCCAACUCAACAAdTdT 3′; knocks down PIK3CD long variant (antisense UUGUUGAGUUGGAUGUUGG; sense: RNA, 3' dTdT, backbone not given here; antisense: RNA, 5' {P}, 3' dTdT, backbone not given here)”, the Matrigel invasion result in the data set with MDA PCa 2b cells [1] was “increase”. Further, the Matrigel invasion result with VCaP cells [2] was “decrease”. Also, in the data set on AKT pathway (MDA PCa 2b cells), the “AKT phosphorylation, both on Thr308 and Ser473” value was “markedly increases”; the “phosphorylation of mTOR and S6” value was “increases”. In the data set on AKT pathway (setting [5]), the “phosphorylation of AKT” value is “decrease”; the “phosphorylation of downstream signaling proteins mTOR and S6” value is “decrease”. For the same substance, the proliferation result with MDA PCa 2b cells [3] is recorded as “increase”. Also, the proliferation entry in the data set with VCaP cells [4] is recorded as “decrease”.

As to “siPIK3CD-S: siRNA duplex SEQ ID Nos. 12 and 13, sense 5′ UGAGGGAGGCCCUGGAUCGAdTdT 3′; knocks down PIK3CD short variant (antisense UCGAUCCAGGGCCUCCCUCA; sense: RNA, 3' dTdT, backbone not given here; antisense: RNA, 5' {P}, 3' dTdT, backbone not given here)”, the results for the Matrigel invasion entry in the data set on MDA PCa 2b cells [1] and with VCaP cells [2] were “decreased” and “no change”, respectively. Besides, the proliferation result in the data set with MDA PCa 2b cells [3] is “decreased”; in the data set on VCaP cells [4], “no change”.
